Read-outs that look alike come from different tables or passages of the source. Values belong to the substance of their own block, whether it stands above or below them. Ends that are not written are not given here.
Legend:
GMP-140 [1] = target: T1, GMP-140 (Homo sapiens, UniProt P16109); experiment: Neutrophil adhesion to purified GMP-140 immobilized on plastic wells (myeloperoxidase readout); format: cell-based; parameters: from tissue; host or cells: outdated human platelet packs (platelet lysate); conditions: for % Bound (neutrophils bound to immobilized GMP-140 in the presence of GMP-140-derived peptide): peptide 1.5 mM, cells bound with control C-terminal peptide 761-777 normalized to 100%
T1 sequence (P16109 42-830): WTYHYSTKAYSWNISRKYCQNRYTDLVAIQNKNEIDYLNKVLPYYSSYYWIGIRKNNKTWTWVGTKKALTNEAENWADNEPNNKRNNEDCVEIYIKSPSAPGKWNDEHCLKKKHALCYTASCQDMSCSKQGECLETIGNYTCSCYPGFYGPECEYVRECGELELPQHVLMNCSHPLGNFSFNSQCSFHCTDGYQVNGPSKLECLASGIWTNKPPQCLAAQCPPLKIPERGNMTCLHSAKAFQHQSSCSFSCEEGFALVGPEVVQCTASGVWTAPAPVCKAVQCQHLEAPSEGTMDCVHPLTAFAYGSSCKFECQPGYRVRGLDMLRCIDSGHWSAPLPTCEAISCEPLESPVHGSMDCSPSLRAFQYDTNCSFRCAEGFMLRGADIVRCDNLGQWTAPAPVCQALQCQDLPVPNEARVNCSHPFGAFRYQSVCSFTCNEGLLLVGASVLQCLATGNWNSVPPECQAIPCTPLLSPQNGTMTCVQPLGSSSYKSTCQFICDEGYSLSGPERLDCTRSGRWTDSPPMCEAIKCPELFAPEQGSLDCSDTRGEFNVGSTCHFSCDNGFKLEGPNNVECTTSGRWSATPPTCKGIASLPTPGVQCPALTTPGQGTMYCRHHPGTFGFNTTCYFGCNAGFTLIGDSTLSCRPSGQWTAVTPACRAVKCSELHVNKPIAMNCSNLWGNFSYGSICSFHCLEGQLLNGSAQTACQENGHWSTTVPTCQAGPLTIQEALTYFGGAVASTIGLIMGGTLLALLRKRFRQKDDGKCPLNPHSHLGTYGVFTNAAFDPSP
Source text: Peptides were screened for their ability to inhibit neutrophil adhesion to purified GMP-140 immobilized on plastic wells, using the assay described by Geng, et al., Nature 343, 757-760 (1990).
Human neutrophils are isolated from heparinized whole blood by density gradient centrifugation on Mono-Poly resolving media, Flow Laboratories. Neutrophil suspensions are greater than 98% pure and greater than 95% viable by trypan blue exclusion. For adhesion assays, neutrophils are suspended at a concentration of 2×10^6 cells/ml in Hanks' balanced salt solution containing 1.26 mM Ca^2+ and 0.81 mM Mg^2+ (HBSS, Gibco) with 5 mg/ml human serum albumin (HBSS/HSA). Adhesion assays are conducted in triplicate in 96-well microtiter plates, Corning, incubated at 4° C. overnight with 50 microliters of various protein solutions.
GMP-140 is plated at 5 micrograms/ml and the control proteins: human serum albumin (Alb), platelet glycoprotein IIb/IIIa (IIb), von Willebrand factor (vWF), fibrinogen (FIB), thrombomodulin (TM), gelatin (GEL) or human serum (HS), are added at 50 micrograms/ml. All wells are blocked for 2 h at 22° C. with 300 microliters HBSS containing 10 mg/ml HSA, then washed three times with HBSS containing 0.1% Tween-20 and once with HBSS. Cells (2×10^5 per well were added to the wells and incubated at 22° C. for 20 min. The wells were then filled with HBSS/HSA, sealed with acetate tape (Dynatech), and centrifuged inverted at 150 g for 5 min. After discarding nonadherent cells and supernates, the contents of each well are solubilized with 200 microliters 0.5% hexadecyltrimethylammonium bromide, Sigma, in 50 mM potassium phosphate, pH 6.0, and assayed for myeloperoxidase activity, Ley, et al., Blood 73, 1324-1330 (1989). The number of cells bound was derived from a standard curve of myeloperoxidase activity versus numbers of cells. Under all assay conditions, the cells released less than 5% of total myeloperoxidase and lactate dehydrogenase. Results are presented in Table I. 100% adhesion is that seen in the presence of the C-terminal peptide (amino acid residues 761-777 of GMP-140) as a negative control; this value is the same as controls in which neither peptide nor antibody is added to the cells. Inhibition is read as a lower percent adhesion, so that a value of 5% mean that 95% of the specific adhesion was inhibited.
Peptides from the lectin-like domain of GMP-140 were assayed for their ability to inhibit adhesion of neutrophils to immobilized GMP-140 in the assay described in example 1. Concentrations tested ranged from 0.1 mM to 1.5 mM.

GMP-140 [2] = target: T1, GMP-140; experiment: ELISA of binding of biotinylated monoclonal antibodies G1, G2, G3 to immobilized GMP-140 with soluble peptide; parameters: from tissue; host or cells: outdated human platelet packs (platelet lysate); conditions: peptide 1.5 mM; for remaining activity at 1500 µM: 2 h
Method: Based on competitive ELISAs with the purified protein, G1, G2, and G3 each recognize distinct or only partially overlapping epitopes. 1.5 mM peptide was added to biotinylated mAb at a concentration of 2.5 micrograms/ml, which were then added to the wells containing GMP-140, as described in example 1. Binding was measured by an ELISA with an avidin detection system.
The monoclonal antibodies were biotinylated as follows: to 0.5 ml of purified IgG antibody (1 mg/ml in PBS, pH 7.4) was added 50 μl of 3.2 mM N-hydroxysuccinimide biotin in dimethyl sulfoxide and 50 μl of 1 M NaHCO3. After a 2 hour incubation at room temperature in the dark, the reaction was stopped with 50 μl of 1 M NH4 Cl. The biotinylated antibody was then separated from other components by gel filtration on a PD-10 column equilibrated in PBS. The ELISA was performed as follows; all steps were performed at room temperature.
Biotinylated antibody (2.5 μg/ml) with or without 1.5 mM peptide was incubated with wells coated with GMP-140 as described in example 1. After a 2 hour incubation, the antibody was removed, the wells were washed, and 0.1 ml of horseradish peroxidase-conjugated stepavidin (Pierce), diluted 1:1000 in HBSS/HSA, was added for 30 min. The wells were then washed and 0.1 ml of peroxidase substrate (Pierce) was added for 15 min. The color reaction was read at 405 nm.

[3] = mAb G1 2.5 micrograms/ml, read-out: % Binding of Biotinylated MAbs G1
[4] = mAb G2 2.5 micrograms/ml, read-out: % Binding of Biotinylated MAbs G2
[5] = mAb G3 2.5 micrograms/ml, read-out: % Binding of Biotinylated MAbs G3

Substance: CQNRYTDL [19-26]
- % Bound (neutrophils bound to immobilized GMP-140 in the presence of GMP-140-derived peptide) (GMP-140 [1]): 92%

Substance: CQNRYTDLVAIQ [19-30]
- % Binding of Biotinylated MAbs G3 (GMP-140 [2]; mAb G3 2.5 micrograms/ml): 54%
- % Bound (neutrophils bound to immobilized GMP-140 in the presence of GMP-140-derived peptide) (GMP-140 [1]): 12%

Substance: CQNRYTDLVAIQNKNE [19-34]
- % Binding of Biotinylated MAbs G1 (GMP-140 [2]; mAb G1 2.5 micrograms/ml): 23%
- % Binding of Biotinylated MAbs G2 (GMP-140 [2]; mAb G2 2.5 micrograms/ml): 26%
- % Binding of Biotinylated MAbs G3 (GMP-140 [2]; mAb G3 2.5 micrograms/ml): 24%
- % Bound (neutrophils bound to immobilized GMP-140 in the presence of GMP-140-derived peptide) (GMP-140 [1]): 5%

Substance: GTKKALTNE [64-72]
- % Bound (neutrophils bound to immobilized GMP-140 in the presence of GMP-140-derived peptide) (GMP-140 [1]): 92%

Substance: KNNKTW [55-60]
- % Bound (neutrophils bound to immobilized GMP-140 in the presence of GMP-140-derived peptide) (GMP-140 [1]): 70%

Substance: NKTWTWV [57-63]
- % Bound (neutrophils bound to immobilized GMP-140 in the presence of GMP-140-derived peptide) (GMP-140 [1]): 69%

Substance: NNKTW [56-60]
- % Bound (neutrophils bound to immobilized GMP-140 in the presence of GMP-140-derived peptide) (GMP-140 [1]): 96%

Substance: NRYTDLV [21-27]
- % Bound (neutrophils bound to immobilized GMP-140 in the presence of GMP-140-derived peptide) (GMP-140 [1]): 65%

Substance: NRYTDLVA [21-28]
- % Bound (neutrophils bound to immobilized GMP-140 in the presence of GMP-140-derived peptide) (GMP-140 [1]): 85%

Substance: NRYTDLVAI [21-29]
- % Bound (neutrophils bound to immobilized GMP-140 in the presence of GMP-140-derived peptide) (GMP-140 [1]): 71%

The next lines start with results.

- inhibition of neutrophil adhesion to immobilized GMP-140 (in words) (GMP-140 [1]): inhibited adhesion
- inhibition of neutrophil adhesion to immobilized GMP-140 (in words) (GMP-140 [1]; listed as 66 to 78): very active
- % Bound (neutrophils bound to immobilized GMP-140 in the presence of GMP-140-derived peptide) (GMP-140 [1]): 6%
Substance: 66-78: GMP-140 lectin domain amino acids 66-78, overlapping peptide; by b139 alignment KKALTENAENWAD
- inhibition of neutrophil binding to immobilized GMP-140, dependence on concentration (GMP-140 [1]; FIG. 3, 0.1 mM to 1.5 mM peptide): inhibited binding in a dose-dependent manner

- % Bound (neutrophils bound to immobilized GMP-140 in the presence of GMP-140-derived peptide) (GMP-140 [1]): 68%
Substance: ADNEPNNKRNNED [77-89]

- % Bound (neutrophils bound to immobilized GMP-140 in the presence of GMP-140-derived peptide) (GMP-140 [1]): 100%
Substance: AENWADNE [73-80]

- % Bound (neutrophils bound to immobilized GMP-140 in the presence of GMP-140-derived peptide) (GMP-140 [1]): 41%
Substance: AENWADNEPNNKR [73-85]

- % Binding of Biotinylated MAbs G1 (GMP-140 [2]; mAb G1 2.5 micrograms/ml): 95%
- % Binding of Biotinylated MAbs G2 (GMP-140 [2]; mAb G2 2.5 micrograms/ml): 99%
- % Binding of Biotinylated MAbs G3 (GMP-140 [2]; mAb G3 2.5 micrograms/ml): 94%
- % Bound (neutrophils bound to immobilized GMP-140 in the presence of GMP-140-derived peptide) (GMP-140 [1]): 22%
Substance: AENWADNEPNNKRNNED [73-89]

- remaining activity at 1500 µM (GMP-140 [2]; [3]): 106%
- remaining activity at 1500 µM (GMP-140 [2]; [4]): 99%
- remaining activity at 1500 µM (GMP-140 [2]; [5]): 104%
Substance: CQDDGK [SECRETORY 720-721/762-765, reference compound]

- remaining activity at 1500 µM (GMP-140 [2]; [3]): 107%
- remaining activity at 1500 µM (GMP-140 [2]; [4]): 96%
- remaining activity at 1500 µM (GMP-140 [2]; [5]): 111%
Substance: CSDTRGEFNVGST [REPEATS 544-556, reference compound]

- remaining activity at 1500 µM (GMP-140 [2]; [3]): 100%
- remaining activity at 1500 µM (GMP-140 [2]; [4]): 100%
- remaining activity at 1500 µM (GMP-140 [2]; [5]): 100%
- % Bound (neutrophils bound to immobilized GMP-140 in the presence of GMP-140-derived peptide) (GMP-140 [1]): 100%
Substance: KDDGKCPLNPHSHLGTY [C-TERMINUS 761-777, reference compound]

- remaining activity at 1500 µM (GMP-140 [2]; [3]): 97%
- remaining activity at 1500 µM (GMP-140 [2]; [4]): 104%
- remaining activity at 1500 µM (GMP-140 [2]; [5]): 109%
Substance: LETIGNYT [EGF 134-141]

- remaining activity at 1500 µM (GMP-140 [2]; [3]): 98%
- remaining activity at 1500 µM (GMP-140 [2]; [4]): 100%
- remaining activity at 1500 µM (GMP-140 [2]; [5]): 108%
Substance: LKKKHAL [LECTIN 110-116]
